Like-named read-outs stand apart in the source and are kept apart here.
What was measured:
[1] = system: Ctenocephalides felis; experiment: Systemic treatment in-vivo test with cat flea on rats; details: Ctenocephalides felis, ip, intraperitoneal injection
Method in brief: (§1)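 Rats dosed intraperitoneally per body weight in glycerol formal (up to 25% NMP for poorly soluble compounds). 30 D. variabilis nymphs released on treatment day and weekly, 30 C. felis fleas 24 h later; live attached engorged ticks counted at 48 h (±4 h), live fleas at 24 h, efficacy versus placebo group.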

[2] = system: Dermacentor variabilis; experiment: In vitro contact test with adult hard ticks (Dermacentor variabilis); details: read-out: acaricidal activity; for pest or weed control at 0.2 µg/cm2, 0.2 µg/cm2: dose 0.2 μg/cm^2, 48 h; for pest or weed control at 1 µg/cm2, 1 µg/cm2: dose 1 μg/cm^2, 48 h
Method in brief: (§2)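 Acaricidal activity = % ticks dead or moribund after 48 h contact with acetone-deposited compound on vial walls (e.g., 900 ppm solution → 5 μg/cm^2). Ambient conditions for R. sanguineus, 21° C./85% rel. hum. for other species; heat challenge at 45-50° C. separated climbers from moribund ticks.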

[3] = system: Plutella xylostella; experiment: Insecticidal testing against diamondback moth; type: in vivo; details: foliar, 144 h, concentration 100 ppm, cabbage leaf dip, third-stage larvae, after 6 days, read-out: pesticidal rate
Description: Insecticidal Testing Against Diamondback Moth (Plutella xylostella)

[4] = system: Amblyomma americanum; experiment: In vitro contact test with hard ticks (Amblyomma americanum nymphs); details: read-out: acaricidal activity; for pest or weed control at 0.2 µg/cm2, 0.2 µg/cm2: dose 0.2 μg/cm^2, 48 h; for pest or weed control at 1 µg/cm2, 1 µg/cm2: dose 1 μg/cm^2, 48 h
Method in brief: as §2

[5] = system: Rhipicephalus (Boophilus) microplus; experiment: In vitro injection test with Rhipicephalus (Boophilus) microplus (BOOPMI Inj); details: 168 h, laid fertile eggs after 7 days, read-out: acaricidal activity; for pest or weed control at 0.00016 mg: dose 0.16 μg/animal injected; for pest or weed control at 0.0008 mg: dose 0.8 μg/animal injected; for pest or weed control at 32 ng: dose 0.032 μg/animal injected
Method in brief: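 Five engorged adult females each get a 1 μl abdominal injection of compound dissolved and diluted in DMSO. Kept 7 days at 28° C./85% rel. hum.; percent activity rates egg laying and egg fertility (0% all fertile, 100% none laid or infertile).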

[6] = system: Dermacentor variabilis; experiment: Systemic treatment in-vivo test with American dog tick nymph on rats; details: Dermacentor variabilis, ip, intraperitoneal injection
Method in brief: as §1

[7] = system: Rhipicephalus sanguineus; experiment: In vitro contact test with adult hard ticks (Rhipicephalus sanguineus); details: read-out: acaricidal activity; for pest or weed control at 0.04 µg/cm2, 0.04 µg/cm2: dose 0.04 μg/cm^2, 48 h; for pest or weed control at 0.2 µg/cm2, 0.2 µg/cm2: dose 0.2 μg/cm^2, 48 h; for pest or weed control at 1 µg/cm2, 1 µg/cm2: dose 1 μg/cm^2, 48 h
Method in brief: as §2

[8] = system: Ctenocephalides felis; experiment: Ctenocephalides felis in-vitro feeding test with fleas (CTECFE oral); details: 48 hours, read-out: insecticidal feeding activity; for pest or weed control at 0.16 ppm: dose 0.16 ppm in citrated cattle blood; for pest or weed control at 0.8 ppm: dose 0.8 ppm in citrated cattle blood; for pest or weed control at 4 ppm: dose 4 ppm in citrated cattle blood; for pest or weed control at 0.032 ppm: dose 0.032 ppm in citrated cattle blood; for pest or weed control at 0.0064 ppm: dose 0.0064 ppm in citrated cattle blood
Method in brief: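 Scored as percent fleas killed (0–100%) 48 hours after feeding began. Compound, dissolved in DMSO and diluted into citrated cattle blood, was offered via a parafilm membrane to roughly 20 adult male and female C. felis at about 37° C.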

[9] = SD 2, read-out: Geometric mean percent reduction in live flea (Ctenocephalides felis) counts compared to untreated control rats
[10] = SD 9, read-out: Geometric mean percent reduction in live flea (Ctenocephalides felis) counts compared to untreated control rats
[11] = SD 16, read-out: Geometric mean percent reduction in live flea (Ctenocephalides felis) counts compared to untreated control rats
[12] = SD 23, read-out: Geometric mean percent reduction in live flea (Ctenocephalides felis) counts compared to untreated control rats
[13] = SD 30, read-out: Geometric mean percent reduction in live flea (Ctenocephalides felis) counts compared to untreated control rats
[14] = SD 2, read-out: Geometric mean percent reduction in live tick (Dermacentor variabilis) counts compared to untreated control rats
[15] = SD 9, read-out: Geometric mean percent reduction in live tick (Dermacentor variabilis) counts compared to untreated control rats
[16] = SD 16, read-out: Geometric mean percent reduction in live tick (Dermacentor variabilis) counts compared to untreated control rats
[17] = SD 23, read-out: Geometric mean percent reduction in live tick (Dermacentor variabilis) counts compared to untreated control rats
[18] = SD 30, read-out: Geometric mean percent reduction in live tick (Dermacentor variabilis) counts compared to untreated control rats

SMILES	inhibition in vivo at 10 mg/kg [1, 9]	inhibition in vivo at 10 mg/kg [1, 10]	inhibition in vivo at 10 mg/kg [1, 11]	inhibition in vivo at 10 mg/kg [1, 12]	pest or weed control at 0.2 µg/cm2, 0.2 µg/cm2 [2]	pest or weed control at 1 µg/cm2, 1 µg/cm2 [2]	pest or weed control at 100 ppm [3]	pest or weed control at 0.2 µg/cm2, 0.2 µg/cm2 [4]	pest or weed control at 1 µg/cm2, 1 µg/cm2 [4]	pest or weed control at 0.00016 mg [5]	pest or weed control at 0.0008 mg [5]	inhibition in vivo at 10 mg/kg [6, 14]	inhibition in vivo at 10 mg/kg [6, 15]	inhibition in vivo at 10 mg/kg [6, 16]	inhibition in vivo at 10 mg/kg [6, 17]	pest or weed control at 0.2 µg/cm2, 0.2 µg/cm2 [7]	pest or weed control at 1 µg/cm2, 1 µg/cm2 [7]	pest or weed control at 0.16 ppm [8]	pest or weed control at 0.8 ppm [8]	pest or weed control at 4 ppm [8]	other results
O=C(Nc1cccc(C(=O)Nc2c(I)cc(C(F)(C(F)(F)F)C(F)(F)F)cc2C(F)(F)F)c1F)c1ccc(C(F)(F)F)nc1 [Compound 67, N-(2-fluoro-3-((2-iodo-4-(perfluoropropan-2-yl)-6-(trifluoromethyl)phenyl)carbamoyl)phenyl)-6-(trifluoromethyl)nicotinamide]	100%	100%	93%	61%	90%	90%	≥ 70%	90%	90%	100%	100%	100%	100%	99%	75%	90%	90%	95%	95%	95%	inhibition in vivo at 2 mg/kg [1, 9]: 100%; inhibition in vivo at 2 mg/kg [1, 10]: 96%; inhibition in vivo at 2 mg/kg [1, 11]: 78%; inhibition in vivo at 2 mg/kg [1, 12]: 11%; inhibition in vivo at 10 mg/kg [1, 13]: 58%; inhibition in vivo at 2 mg/kg [6, 14]: 100%; inhibition in vivo at 2 mg/kg [6, 15]: 95%; inhibition in vivo at 2 mg/kg [6, 16]: 32%; inhibition in vivo at 2 mg/kg [6, 17]: 20%; inhibition in vivo at 10 mg/kg [6, 18]: 57%; pest or weed control at 0.04 µg/cm2, 0.04 µg/cm2 [7]: 90%
CN(C(=O)c1ccc(F)cc1)c1cccc(C(=O)Nc2c(I)cc(C(F)(C(F)(F)F)C(F)(F)F)cc2OC(F)(F)F)c1F [Compound 74]	91%	96%	86%	89%	90%	90%	≥ 70%	90%	90%	100%	100%	100%	100%	90%	89%	90%	90%	95%	95%	95%	inhibition in vivo at 10 mg/kg [1, 13]: 78%; pest or weed control at 32 ng [5]: 100%; inhibition in vivo at 10 mg/kg [6, 18]: 78%; pest or weed control at 0.04 µg/cm2, 0.04 µg/cm2 [7]: 90%; pest or weed control at 0.032 ppm [8]: 95%
CN(C(=O)c1ccc(F)cc1)c1cccc(C(=O)Nc2c(I)cc(C(F)(C(F)(F)F)C(F)(F)C(F)(F)F)cc2OC(F)F)c1F (centres unmarked) [Compound 103]	100%	92%	70%	20%	90%	90%	≥ 70%	90%	90%	100%	100%	100%	100%	74%	43%	90%	90%	95%	95%	95%	pest or weed control at 0.04 µg/cm2, 0.04 µg/cm2 ([2]; dose 0.04 μg/cm^2, 48 h): 90%; pest or weed control at 6.4 ng ([5]; dose 0.0064 μg/animal injected): 100%; pest or weed control at 32 ng [5]: 100%; pest or weed control at 0.0064 ppm [8]: 95%; pest or weed control at 0.032 ppm [8]: 95%
CN(C(=O)c1ccc(F)nc1)c1cccc(C(=O)Nc2c(I)cc(C(F)(C(F)(F)F)C(F)(F)F)cc2C(F)(F)F)c1F [Compound 115, 6-fluoro-N-(2-fluoro-3-((2-iodo-4-(perfluoropropan-2-yl)-6-(trifluoromethyl)phenyl)carbamoyl)phenyl)-N-methylnicotinamide]	100%	100%	99%	47%	90%	90%	≥ 70%	90%	90%	100%	100%	100%	99%	86%	46%	90%	90%	95%	95%	95%	inhibition in vivo at 2 mg/kg [1, 9]: 100%; inhibition in vivo at 2 mg/kg [1, 10]: 98%; inhibition in vivo at 2 mg/kg [1, 11]: 73%; inhibition in vivo at 10 mg/kg [1, 13]: 8%; pest or weed control at 32 ng [5]: 100%; inhibition in vivo at 10 mg/kg [6, 18]: 17%; pest or weed control at 0.04 µg/cm2, 0.04 µg/cm2 [7]: 90%; pest or weed control at 0.0064 ppm [8]: 95%; pest or weed control at 0.032 ppm [8]: 95%

— US11696913B2, “Prolonged ectoparasite-controlling agent for animal” (MITSUI CHEMICALS AGRO, INC., priority 2017, dated 2023)
